These are literature values, as cited in patent publication US20250122197A1, “PROCESS FOR […] ISOLATING ATROPISOMERS OF 7-CHLORO-6-FLUORO-1-(2-ISOPROPYL-4-METHYLPYRIDIN-3-YL)PYRIDO[2,3-D]PYRIMIDINE-2,4(1H,3H)-DIONE” (AMGEN INC., priority 2020, published 2025).

Series [1] concerns phosphorylation of extracellular signal-regulated kinase (ERK). Particulars: preclinical studies, Canon et al. Nature 2019.
The test system of the next series is KRAS p.G12C tumors. Particulars: mice bearing KRAS p.G12C tumors, Canon et al. Nature 2019.

Take `C=CC(=O)N1CCN(c2nc(=O)n(-c3c(C)ccnc3C(C)C)c3nc(-c4c(O)cccc4F)c(F)cc23)[C@@H](C)C1` [AMG 510]: the “Inhibition of ERK phosphorylation” value in series [1] is “inhibited nearly all detectable phosphorylation”. For the same compound, the Tumor regression result in the series on KRAS p.G12C tumors is “durable complete tumor regression”.
